# Results: patent publication US20200262877A1, “ION CHANNEL-BINDING PEPTIDES AND METHODS OF USE THEREOF” (priority 2017, published 2020)
# Read-outs that look alike come from different tables or passages of the source. Where a SMILES comes first, the peptide text is derived from it. Bridges are numbered along the chain shown (N, C = ends). Where no end group is shown, it is not given here.
# Tests used:
# [1] = molecular target: T1, Nav1.7 (Homo sapiens, UniProt Q15858); assay: cell-based; type: cell-based; details: read-out: Ion channel activity (ion channel inhibition)
# T1 construct: host or cells: HEK293 or CHO
# [2] = test system: panel of 20 ion channels; type: cell-based
# Experimental: This example describes a method for assaying ion channel activity in cells.
# Peptides were screened in duplicate at final concentrations of 20 μM and 200 nM, as determined by amino acid analysis, and diluted into HEPES buffered physiological saline (HBPS). HEK293 or CHO cells from the American Type Culture Collection (ATCC) were transfected with the appropriate ion channel before use. HEK293 cells were grown in Dulbecco's Modified Eagle Medium/Nutrient Mixture F-12, and CHO cells were cultured in Ham's F-12 media. All cultures were supplemented with 10% fetal bovine serum, 100 U/ml penicillin G, 100 μg/ml streptomycin sulfate, and the appropriate selection antibiotics. Prior to use, cells were washed twice with Hank's Balanced Salt Solution, and treated with Accutase cell detachment solution (Sigma-Aldrich). Cells were then washed. Peptides and controls were incubated with cells for at least five minutes.
# Percent inhibition was defined as: (1-(Ipeptide/Icontrol))×100%).
# Percent values were calculated using the following formula: % activation=(IPeptide/Icontrol)×100%, where IPeptide is the current produced by co-application a peptide with agonist, and Icontrol refers to the current produced by stimulation in control. Control used for each ion channel is the reference compound matched to a particular channel, as illustrated in TABLE 10 below.
# [3] = molecular target: T2, Cav2.2 (Homo sapiens, UniProt Q00975); assay: cell-based; details: read-out: Ion channel activity (ion channel inhibition)
# T2 construct: host or cells: HEK293 or CHO
# How it was run: (§1)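 Transfected HEK293 or CHO cells were exposed for at least 5 min to peptides at 200 nM and 20 μM final, tested in duplicate, in HEPES-buffered physiological saline. Activation was taken as peptide-plus-agonist current over control current ×100, and inhibition as 1 minus that ratio ×100. Each channel's control was its own reference compound.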
# [4] = molecular target: T3, Cav2.1 (Homo sapiens, UniProt O00555); assay: cell-based; details: read-out: Ion channel activity (ion channel inhibition)
# T3 construct: host or cells: HEK293 or CHO
# How it was run: as §1
# [5] = molecular target: T4, hERG (Homo sapiens, UniProt Q12809); assay: in vitro; details: for activity at 20 µM: human
# T4 sequence (Q12809 whole entry): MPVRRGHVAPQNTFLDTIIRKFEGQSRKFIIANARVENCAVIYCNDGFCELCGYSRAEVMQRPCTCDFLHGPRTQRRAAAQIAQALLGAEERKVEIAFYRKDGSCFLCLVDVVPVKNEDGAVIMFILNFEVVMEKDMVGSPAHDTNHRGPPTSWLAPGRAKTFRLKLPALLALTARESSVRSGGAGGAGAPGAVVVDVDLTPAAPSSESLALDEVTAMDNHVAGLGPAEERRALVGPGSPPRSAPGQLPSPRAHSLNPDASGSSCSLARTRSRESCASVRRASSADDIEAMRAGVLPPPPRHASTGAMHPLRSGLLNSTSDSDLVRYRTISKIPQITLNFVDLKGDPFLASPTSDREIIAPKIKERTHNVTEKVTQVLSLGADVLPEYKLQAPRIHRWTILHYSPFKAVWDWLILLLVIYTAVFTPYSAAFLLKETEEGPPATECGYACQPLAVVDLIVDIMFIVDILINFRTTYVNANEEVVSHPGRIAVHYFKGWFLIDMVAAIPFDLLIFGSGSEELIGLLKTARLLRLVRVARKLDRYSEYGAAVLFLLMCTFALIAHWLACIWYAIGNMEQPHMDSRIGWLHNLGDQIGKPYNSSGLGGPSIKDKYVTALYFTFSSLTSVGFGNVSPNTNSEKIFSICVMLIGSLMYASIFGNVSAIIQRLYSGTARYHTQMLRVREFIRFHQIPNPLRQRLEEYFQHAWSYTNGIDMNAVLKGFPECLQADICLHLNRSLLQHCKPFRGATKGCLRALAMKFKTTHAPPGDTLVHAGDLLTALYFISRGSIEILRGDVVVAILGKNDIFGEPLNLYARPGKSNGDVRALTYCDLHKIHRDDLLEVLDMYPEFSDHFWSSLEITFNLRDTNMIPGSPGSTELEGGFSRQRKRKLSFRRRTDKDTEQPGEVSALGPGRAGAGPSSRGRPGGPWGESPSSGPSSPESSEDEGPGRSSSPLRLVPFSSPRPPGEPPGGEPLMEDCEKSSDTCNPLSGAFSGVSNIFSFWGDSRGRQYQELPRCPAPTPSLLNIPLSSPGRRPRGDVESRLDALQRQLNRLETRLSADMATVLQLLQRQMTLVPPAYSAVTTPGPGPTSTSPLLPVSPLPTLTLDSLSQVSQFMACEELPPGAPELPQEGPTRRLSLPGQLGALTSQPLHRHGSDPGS
# How it was run: as §1
# [6] = molecular target: Nav1.5 (Homo sapiens, UniProt Q14524); assay: in vitro
# How it was run: as §1
# [7] = molecular target: Kv1.3 potassium channel (human KCNA3 gene) (Homo sapiens, UniProt P22001); assay: cell-based; parameters: host or cells: CHO; details: human Kv1.3 in CHO cells
# Kv1.3 potassium channel (human KCNA3 gene), sequence (P22001 whole entry): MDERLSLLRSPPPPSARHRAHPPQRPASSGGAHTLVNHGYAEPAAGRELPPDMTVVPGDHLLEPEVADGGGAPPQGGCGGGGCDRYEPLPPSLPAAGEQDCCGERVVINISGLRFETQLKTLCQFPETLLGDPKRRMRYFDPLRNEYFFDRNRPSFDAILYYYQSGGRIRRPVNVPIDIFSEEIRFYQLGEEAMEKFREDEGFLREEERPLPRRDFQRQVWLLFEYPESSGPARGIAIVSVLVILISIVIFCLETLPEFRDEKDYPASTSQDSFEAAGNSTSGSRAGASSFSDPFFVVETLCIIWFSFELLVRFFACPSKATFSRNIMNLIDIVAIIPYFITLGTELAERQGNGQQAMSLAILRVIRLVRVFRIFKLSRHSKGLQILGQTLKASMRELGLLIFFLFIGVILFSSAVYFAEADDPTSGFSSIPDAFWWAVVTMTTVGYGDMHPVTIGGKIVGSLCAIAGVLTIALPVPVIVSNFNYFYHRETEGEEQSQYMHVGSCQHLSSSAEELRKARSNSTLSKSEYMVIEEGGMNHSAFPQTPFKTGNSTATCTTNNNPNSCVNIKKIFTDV
# [8] = molecular target: Nav1.3 sodium channel (human SCN3A gene) (Homo sapiens, UniProt Q9NY46); assay: cell-based; parameters: host or cells: CHO
# Nav1.3 sodium channel (human SCN3A gene), sequence (Q9NY46 whole entry): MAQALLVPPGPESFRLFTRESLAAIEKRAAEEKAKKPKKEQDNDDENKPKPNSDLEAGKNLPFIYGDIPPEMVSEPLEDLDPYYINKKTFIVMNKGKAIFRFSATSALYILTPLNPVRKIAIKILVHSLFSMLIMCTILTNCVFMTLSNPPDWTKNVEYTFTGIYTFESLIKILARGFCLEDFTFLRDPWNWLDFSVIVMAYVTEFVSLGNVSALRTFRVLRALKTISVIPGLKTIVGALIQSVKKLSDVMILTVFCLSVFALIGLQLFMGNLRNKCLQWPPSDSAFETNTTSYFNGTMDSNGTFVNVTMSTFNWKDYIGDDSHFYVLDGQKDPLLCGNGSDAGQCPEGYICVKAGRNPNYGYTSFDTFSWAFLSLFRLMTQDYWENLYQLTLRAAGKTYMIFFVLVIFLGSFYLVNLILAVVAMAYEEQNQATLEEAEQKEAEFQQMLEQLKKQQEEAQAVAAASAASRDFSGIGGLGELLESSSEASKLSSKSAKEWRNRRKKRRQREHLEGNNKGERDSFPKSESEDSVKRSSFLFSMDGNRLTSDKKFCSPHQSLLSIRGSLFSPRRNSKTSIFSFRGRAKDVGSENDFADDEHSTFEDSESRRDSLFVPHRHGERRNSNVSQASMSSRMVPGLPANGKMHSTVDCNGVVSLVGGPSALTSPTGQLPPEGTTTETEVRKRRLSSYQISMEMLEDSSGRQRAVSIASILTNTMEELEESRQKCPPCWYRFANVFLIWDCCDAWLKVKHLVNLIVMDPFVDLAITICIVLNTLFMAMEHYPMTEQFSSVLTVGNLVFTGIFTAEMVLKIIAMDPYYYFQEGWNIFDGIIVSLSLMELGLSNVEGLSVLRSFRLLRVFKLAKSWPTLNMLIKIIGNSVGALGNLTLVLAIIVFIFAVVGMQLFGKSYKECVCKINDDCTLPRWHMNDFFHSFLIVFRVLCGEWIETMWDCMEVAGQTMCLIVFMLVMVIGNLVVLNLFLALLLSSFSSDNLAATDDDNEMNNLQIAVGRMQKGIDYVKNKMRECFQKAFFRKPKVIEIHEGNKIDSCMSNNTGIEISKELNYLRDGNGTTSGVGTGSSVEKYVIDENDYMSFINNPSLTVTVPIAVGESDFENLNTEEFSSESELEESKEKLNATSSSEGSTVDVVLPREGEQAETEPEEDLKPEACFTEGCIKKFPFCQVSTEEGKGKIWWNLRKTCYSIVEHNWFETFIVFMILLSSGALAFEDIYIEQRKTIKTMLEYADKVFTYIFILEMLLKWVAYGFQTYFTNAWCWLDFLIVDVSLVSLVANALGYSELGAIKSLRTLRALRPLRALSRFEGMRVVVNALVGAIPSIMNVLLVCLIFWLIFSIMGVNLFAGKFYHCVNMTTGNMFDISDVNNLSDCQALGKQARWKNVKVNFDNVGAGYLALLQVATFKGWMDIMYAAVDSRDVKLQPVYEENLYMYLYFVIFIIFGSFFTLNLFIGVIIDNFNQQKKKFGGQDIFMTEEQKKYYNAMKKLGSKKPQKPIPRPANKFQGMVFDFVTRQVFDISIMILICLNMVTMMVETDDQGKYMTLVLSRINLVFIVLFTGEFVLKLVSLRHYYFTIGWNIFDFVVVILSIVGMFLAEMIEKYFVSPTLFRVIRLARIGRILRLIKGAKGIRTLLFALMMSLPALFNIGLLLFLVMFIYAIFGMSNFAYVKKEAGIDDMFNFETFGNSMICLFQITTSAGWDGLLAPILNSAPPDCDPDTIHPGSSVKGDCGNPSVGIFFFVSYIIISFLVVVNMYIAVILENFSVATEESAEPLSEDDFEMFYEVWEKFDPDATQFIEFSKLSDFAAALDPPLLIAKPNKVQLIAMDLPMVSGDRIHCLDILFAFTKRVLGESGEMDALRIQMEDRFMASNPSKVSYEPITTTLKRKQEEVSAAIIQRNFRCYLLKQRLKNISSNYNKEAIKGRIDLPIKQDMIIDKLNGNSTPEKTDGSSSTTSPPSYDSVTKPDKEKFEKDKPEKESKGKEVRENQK
# [9] = molecular target: Nav1.4 sodium channel (human SCN4A gene) (Homo sapiens, UniProt P35499); assay: cell-based; parameters: host or cells: CHO; details: human Nav1.4 in CHO cells
# [10] = molecular target: Nav1.7 sodium channel (human SCN9A gene) (Homo sapiens, UniProt Q15858); assay: cell-based; parameters: expressed in transfected cells; host or cells: CHO cells; details: human Nav1.7 in CHO cells
# [11] = molecular target: T5, Nav1.5 cardiac sodium channel (human SCN5A gene) (Homo sapiens, UniProt Q14524); assay: cell-based
# [12] = molecular target: T5, Nav1.5 cardiac sodium channel (human SCN5A gene); details: read-out: IC50 Nav1.5 ion channel inhibition, TP2; human Nav1.5 in CHO cells; TP2 (inactivated state inhibition)
# [13] = molecular target: Kv1.5 potassium channel (human KCNA5 gene) (Homo sapiens, UniProt P22460); assay: cell-based; parameters: host or cells: CHO; details: human Kv1.5 in CHO cells
# Kv1.5 potassium channel (human KCNA5 gene), sequence (P22460 whole entry): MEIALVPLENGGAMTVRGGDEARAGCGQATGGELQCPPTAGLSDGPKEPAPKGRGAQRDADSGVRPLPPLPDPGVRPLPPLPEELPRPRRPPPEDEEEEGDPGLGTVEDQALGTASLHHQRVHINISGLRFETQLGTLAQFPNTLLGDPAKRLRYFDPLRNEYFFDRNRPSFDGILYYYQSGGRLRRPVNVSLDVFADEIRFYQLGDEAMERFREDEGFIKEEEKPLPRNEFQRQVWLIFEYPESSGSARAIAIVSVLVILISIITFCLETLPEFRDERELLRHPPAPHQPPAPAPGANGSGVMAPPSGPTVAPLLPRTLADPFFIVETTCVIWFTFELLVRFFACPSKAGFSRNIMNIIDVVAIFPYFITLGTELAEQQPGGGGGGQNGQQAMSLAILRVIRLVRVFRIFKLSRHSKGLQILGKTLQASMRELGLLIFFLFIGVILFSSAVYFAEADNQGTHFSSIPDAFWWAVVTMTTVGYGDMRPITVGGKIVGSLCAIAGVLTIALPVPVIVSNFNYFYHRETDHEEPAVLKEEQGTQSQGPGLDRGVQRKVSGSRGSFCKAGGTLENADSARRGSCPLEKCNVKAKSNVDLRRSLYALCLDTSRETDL
# [14] = molecular target: T4, hERG; details: cited from earlier work
# [15] = molecular target: T6, Kv1.2 (Homo sapiens, UniProt P16389); assay: cell-based; type: cell-based; details: Kv1.2, percentage of control, 100% = no change, read-out: Ion channel activity (ion channel inhibition); for activity at 20 µM: peptide at 20 μM
# T6 construct: host or cells: HEK293 or CHO
# T6 sequence (P16389 whole entry): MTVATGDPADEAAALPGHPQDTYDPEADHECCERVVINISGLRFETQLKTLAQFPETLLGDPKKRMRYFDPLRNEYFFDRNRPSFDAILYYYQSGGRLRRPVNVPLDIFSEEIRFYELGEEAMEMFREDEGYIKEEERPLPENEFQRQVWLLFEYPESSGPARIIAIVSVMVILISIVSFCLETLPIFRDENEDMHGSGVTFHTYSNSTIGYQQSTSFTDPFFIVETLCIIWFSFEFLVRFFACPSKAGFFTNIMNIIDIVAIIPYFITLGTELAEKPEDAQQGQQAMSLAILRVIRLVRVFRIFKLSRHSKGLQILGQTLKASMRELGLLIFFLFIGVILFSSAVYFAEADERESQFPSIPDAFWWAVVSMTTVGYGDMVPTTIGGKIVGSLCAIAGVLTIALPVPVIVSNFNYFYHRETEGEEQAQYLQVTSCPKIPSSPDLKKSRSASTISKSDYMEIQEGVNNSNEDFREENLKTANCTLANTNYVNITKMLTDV
# How it was run: as §1
# [16] = molecular target: T7, Kv1.3 (Homo sapiens, UniProt P22001); assay: cell-based; type: cell-based; details: Kv1.3; peptide at 20 μM; percentage of control, 100% = no change; read-out: Ion channel activity (ion channel inhibition)
# T7 construct: host or cells: HEK293 or CHO
# T7 sequence (P22001 whole entry): as the sequence (P22001 whole entry) above
# How it was run: as §1
# [17] = test system: calcium channels (ryanodine receptors); details: prior reports; cited from earlier work
molecule,measurement,setting,value
CC[C@H](C)[C@@H]1NC(=O)[C@H](CC(N)=O)NC(=O)[C@H](CCCNC(=N)N)NC(=O)[C@@H]2CCCN2C(=O)[C@H](Cc2c[nH]c3ccccc23)NC(=O)[C@H](CCCCN)NC(=O)[C@H](CO)NC(=O)[C@H](CCCCN)NC(=O)[C@@H]2CSSC[C@@H]3NC(=O)[C@H](CCCCN)NC(=O)CNC(=O)[C@H](Cc4c[nH]c5ccccc45)NC(=O)[C@H](Cc4ccccc4)NC(=O)[C@H](CCCNC(=N)N)NC(=O)[C@H](C(C)C)NC(=O)[C@@H](NC(=O)[C@H](CC(=O)O)NC(=O)[C@H](CO)NC(=O)CN)CSSC[C@H](NC(=O)[C@H](CSSC[C@@H](C(=O)N[C@H](C(=O)N[C@@H](Cc4c[nH]c5ccccc45)C(=O)N[C@@H](CC(=O)O)C(=O)NCC(=O)N[C@@H](CO)C(=O)N[C@H](C(=O)NCC(=O)O)C(C)C)C(C)C)NC1=O)NC(=O)[C@H](CC(=O)O)NC(=O)[C@H](CO)NC(=O)[C@H]([C@@H](C)O)NC(=O)[C@H](CCC(N)=O)NC(=O)[C@H](CO)NC3=O)C(=O)N1CCC[C@H]1C(=O)N[C@@H](Cc1c[nH]cn1)C(=O)N[C@@H](CC(C)C)C(=O)N[C@@H](C)C(=O)N2 [SEQ ID NO: 7],activity at 20 µM,[1],< 50%
same,Inhibition of voltage-sensitive calcium channels,[2],inhibited voltage-sensitive calcium channels
same,activity at 20 µM,[3],< 50%
same,activity at 20 µM,[4],< 50%
same,activity at 20 µM,[5],< 50%
same,activity at 20 µM,[6],< 50%
"CC[C@H](C)[C@@H]1NC(=O)[C@H](CCC(=O)O)NC(=O)[C@H](CCCNC(=N)N)NC(=O)[C@H](CCCNC(=N)N)NC(=O)[C@@H]2CSSC[C@@H](C(=O)N[C@@H](Cc3ccc(O)cc3)C(=O)N[C@@H](CCCNC(=N)N)C(=O)N[C@@H](CC(N)=O)C(=O)O)NC(=O)[C@H](C(C)C)NC(=O)[C@@H]3CSSC[C@H](NC(=O)[C@H](CO)NC(=O)CNC(=O)CNC(=O)[C@H](CCC(N)=O)NC(=O)[C@@H](NC(=O)[C@H](CCCCN)NC(=O)[C@@H](NC(=O)[C@H](CC(N)=O)NC(=O)[C@@H](NC(=O)[C@H](CCC(N)=O)NC(=O)[C@@H](NC(=O)[C@H](CCC(N)=O)NC(=O)[C@H](CO)NC(=O)CN)C(C)C)[C@@H](C)O)C(C)C)CSSC[C@H](NC(=O)[C@H](CCCCN)NC(=O)CNC(=O)[C@H](C)NC(=O)[C@H](C)NC(=O)[C@H](C(C)C)NC(=O)CNC1=O)C(=O)N[C@@H]([C@@H](C)CC)C(=O)N[C@@H](CC(N)=O)C(=O)NCC(=O)N[C@@H](CCCCN)C(=O)N3)C(=O)N[C@@H](C)C(=O)N[C@@H](CO)C(=O)N[C@@H](C(C)C)C(=O)N2 [SEQ ID NO: 10] (H-GSQVQTNVKCQGGSCASVCRREIGVAAGKCINGKCVCYRN-OH; disulfide 10-30, 15-35, 19-37)",IC50,"[7]; test pulse TP1, read-out: IC50 Kv1.3 ion channel inhibition, TP1",> 1000 nM
same,IC50,"[7]; test pulse TP6, read-out: IC50 Kv1.3 ion channel inhibition, TP6",> 1000 nM
same,IC50,"[8]; human Nav1.3 in CHO cells, TP1 (tonic inhibition), read-out: IC50 Nav1.3 ion channel inhibition, TP1",> 1000 nM
same,IC50,"[8]; human Nav1.3 in CHO cells, TP2 (inactivated state inhibition), read-out: IC50 Nav1.3 ion channel inhibition, TP2",> 1000 nM
same,IC50,"[9]; TP1 (tonic inhibition), read-out: IC50 Nav1.4 ion channel inhibition, TP1",> 1000 nM
same,IC50,"[9]; TP2 (inactivated state inhibition), read-out: IC50 Nav1.4 ion channel inhibition, TP2",> 1000 nM
same,IC50,"[10]; TP1 (tonic inhibition), read-out: IC50 Nav1.7 ion channel inhibition, TP1",> 1000 nM
same,IC50,"[10]; TP2 (inactivated state inhibition), read-out: IC50 Nav1.7 ion channel inhibition, TP2",> 1000 nM
same,IC50,[11],> 1000 nM
same,IC50,[12],> 1000 nM
same,IC50,"[13]; test pulse TP1, read-out: IC50 Kv1.5 ion channel inhibition, TP1",> 1000 nM
same,IC50,"[13]; test pulse TP6, read-out: IC50 Kv1.5 ion channel inhibition, TP6",> 1000 nM
"CC[C@H](C)[C@H](NC(=O)[C@H](CC(=O)O)NC(=O)[C@@H](NC(=O)[C@@H]1CCCN1C(=O)[C@H](CCCNC(=N)N)NC(=O)[C@H](CO)NC(=O)CN)[C@@H](C)O)C(=O)N[C@@H](CCCCN)C(=O)N[C@H]1CSSC[C@@H]2NC(=O)[C@H](CCCNC(=N)N)NC(=O)CNC(=O)[C@H](CC(N)=O)NC(=O)[C@H]([C@@H](C)O)NC(=O)[C@H](CCCCN)NC(=O)CNC(=O)[C@H](Cc3ccccc3)NC(=O)[C@H](CCCNC(=N)N)NC(=O)[C@H](CO)NC(=O)[C@H](CCCCN)NC(=O)[C@@H]3CSSC[C@@H](C(=O)N[C@@H](Cc4ccccc4)C(=O)O)NC(=O)[C@H](CC(=O)O)NC(=O)[C@H](CSSC[C@H](NC(=O)[C@H](CCC(N)=O)NC(=O)[C@H](Cc4ccc(O)cc4)NC(=O)[C@H](CO)NC(=O)[C@H](C)NC(=O)[C@H](CO)NC1=O)C(=O)N[C@@H](Cc1ccccc1)C(=O)N1CCC[C@H]1C(=O)N[C@@H](C(C)C)C(=O)N3)NC(=O)[C@H](CC(C)C)NC(=O)CNC(=O)[C@H](CC(N)=O)NC(=O)[C@H](C(C)C)NC2=O [SEQ ID NO: 17] (H-GSRPTDIKCSASYQCFPVCKSRFGKTNGRCVNGLCDCF-OH; disulfide 9-30, 15-35, 19-37)","hERG inhibition or binding, previously reported",[14],previously been demonstrated to bind to hERG
same,activity at 20 µM,[15],< 50%
same,activity at 20 µM,[16],< 50%
same,Activity against / inhibition of hERG (Kv11.1),"[5]; 0.2 or 20 μM, FIG. 2",confirmed hERG inhibition
same,activity at 20 µM,[5],< 50%
"NC1=N[C@H](O)[C@H]2[C@H]3O[C@]4(O)O[C@@H]([C@@H](O)[C@@]2(N1)[C@@H]4O)[C@]3(O)CO [TTX, Tetrodotoxin, reference compound]",IC50,"[8]; read-out: IC50 Nav1.3 ion channel inhibition, TP1",33 nM
same,IC50,"[8]; read-out: IC50 Nav1.3 ion channel inhibition, TP2",28 nM
"GSDRDSCIDKSRCSKYGYYQECQDCCKKAGHNGGTCMFFKCKCA (disulfide 7-25, 13-36, 22-41, 26-43) [SEQ ID NO: 14]","hERG inhibition or binding, previously reported",[14],previously reported to inhibit hERG channels
same,activity at 0.2 µM,[15]; peptide at 0.2 μM,< 80%
same,activity at 20 µM,[15],< 50%
same,Activity on potassium channels,"[2]; potassium channels of the panel, 0.2 or 20 μM, FIG. 2",showed activity against additional potassium channels
same,activity at 20 µM,[5],< 50%
GSGDCLPHLKRCKENNDCCSKKCKRRGANPEKRCR [SEQ ID NO: 11],"Activity against additional potassium channels or serotonin receptors (e.g., 5-HT3a)","[2]; 0.2 or 20 μM, FIG. 2","showed activity against additional potassium channels or serotonin receptors (e.g., 5-HT3a)"
same,"Inhibition of calcium channels (ryanodine receptors), reported",[17],reported to inhibit calcium channels (ryanodine receptors)
GSSEKDCIKHLQRCRENKDCCSKKCSRRGTNPEKRCR [SEQ ID NO: 3],"Activity against additional potassium channels or serotonin receptors (e.g., 5-HT3a)","[2]; 0.2 or 20 μM, FIG. 2","showed activity against additional potassium channels or serotonin receptors (e.g., 5-HT3a)"
same,"Inhibition of calcium channels (ryanodine receptors), reported",[17],reported to inhibit calcium channels (ryanodine receptors)
